What was measured:
[1] = target: type 4 phosphodiesterases (PDE4); assay: Inhibition of the phosphodiesterase (PDE4), enzymatic preparation from line U937; assay type: biochemical; details: PDE4 from cytosolic preparation of human cell line U937
Experimental: The capacity of the formula (I) compounds of the invention to inhibit the cyclic nucleotide phosphodiesterases is evaluated by their Cl50 measurement (necessary concentration to inhibit 50% of enzymatic activity).
The type 4 phosphodiesterases are obtained from a cytosolic preparation extracted from the human origin cellular line U937 according to a method adapted from T. J. Torphy and al., 1992, J.Pharm.Exp. Ther. 263: 1195-1205
The other classes of phosphodiesterases are obtained after partial purification FPLC on Mono Q column. (anion exchange column) according to a method adapted from Lavan B. E., Lakey T., Houslay M. D. Biochemical Pharmacology, 1989, 38(22), 4123-4136., and from Silver P. J and al., 1988, Eur.J. Pharmacol. 150: 85-94, either, from human origin cellular lines for PDE 1 (monocytar line TPH1) and PDE5 (line MCF7 issued from an adenocarcinoma), or from dog aorta for PDE 3, or for the human PDE3A, from gene cloning in insect cells SF21 in baculovirus, according to a method adapted from Luckow, V. A. and al., 1991 in Recombinant DNA Technology&Applications.,eds. Prokop, Bajpai,R. K.&Ho,C. S., pp97-152. The enzymatic activity measurement of the different PDE classes, and in particular the PDE 4, is performed according to a method adapted from W. J. Thompson and al. 1979, Advances in Cyclic Nucleotide Research, Vol. 10: 69-92, ed. G. Brooker and al. Raven Press, NY.
For the Cl50 determination, the enzymatic activity is measured in the presence of inhibitor within concentration margins of 0.1 to 100 μM.
The following table illustrates the PDE4 inhibitory activity from enzymatic preparation obtained from the line U937.

Structure (SMILES) | IC50 [1] | melting point
O=c1c2cc(Br)ccc2n2c(N3CCCC3)nnc2n1Cc1ccc(Cl)cc1 [Compound 43, 7-Bromo-4-(4-chloro-benzyl)-1-pyrrolidin-1-yl-4H-[1,2,4]triazolo[4,3-a]quinazolin-5-one] | 30 nM | 105 °C
O=c1c2cc(Br)ccc2n2c(N3CCCC3)nnc2n1Cc1ccc(F)cc1 [Compound 44, 7-Bromo-4-(4-fluoro-benzyl)-1-pyrrolidin-1-yl-4H-[1,2,4]triazolo[4,3-a]quinazolin-5-one] | 90 nM | 166 °C
COC(=O)c1ccc(Cn2c(=O)c3cc(Br)ccc3n3c(N4CCCC4)nnc23)cc1 [Compound 47, 4-(7-Bromo-5-oxo-1-pyrrolidin-1-yl-5H-[1,2,4]triazolo[4,3-a]quinazolin-4-ylmethyl)-benzoic acid methyl ester] | 50 nM | 205 °C
O=c1c2cc(Br)ccc2n2c(N3CCCC3)nnc2n1Cc1ccc([N+](=O)[O-])cc1 [Compound 48, 7-Bromo-4-(4-nitro-benzyl)-1-pyrrolidin-1-yl-4H-[1,2,4]triazolo[4,3-a]quinazolin-5-one] | 25 nM | 200 °C
COc1ccc(Cn2c(=O)c3cc(Br)ccc3n3c(N4CCCC4)nnc23)cc1 [Compound 49, 7-Bromo-4-(4-methoxy-benzyl)-1-pyrrolidin-1-yl-4H-[1,2,4]triazolo[4,3-a]quinazolin-5-one] | 80 nM | 169 °C
CC(=O)Oc1ccc(Cn2c(=O)c3cc(Br)ccc3n3c(N4CCCC4)nnc23)cc1 [Compound 50, Acetic acid 4-(7-bromo-5-oxo-1-pyrrolidin-1-yl-5H-[1,2,4]triazolo[4,3-a]quinazolin-4-ylmethyl)-phenyl ester] | 35 nM | 195 °C
O=c1c2cc(Br)ccc2n2c(N3CCCC3)nnc2n1Cc1ccc(O)cc1 [Compound 51, 7-Bromo-4-(4-hydroxy-benzyl)-1-pyrrolidin-1-yl-4H-[1,2,4]triazolo[4,3-a]quinazolin-5-one] | 27 nM | 288 °C
COc1ccc(Cn2c(=O)c3cc(Br)ccc3n3c(N4CCCC4)nnc23)cc1OC [Compound 52, 7-Bromo-4-(3,4-dimethoxy-benzyl)-1-pyrrolidin-1-yl-4H-[1,2,4]triazolo[4,3-a]quinazolin-5-one] | 30 nM | 151 °C
O=c1c2cc(Br)ccc2n2c(N3CCCC3)nnc2n1CC=Cc1ccccc1 [Compound 57, 1-(pyrrolidin-1-yl)-7-bromo-4-(3-phenylallyl)-4H-[1,2,4]triazolo[4,3-a]quinazolin-5-one] | 14 nM | 152 to 155 °C
O=c1c2cc(Br)ccc2n2c(N3CCCC3)nnc2n1C/C=C/c1ccc(Cl)cc1 [Compound 59, 7-Bromo-4-[(E)-3-(4-chloro-phenyl)-allyl]-1-pyrrolidin-1-yl-4H-[1,2,4)triazolo[4,3-a]quinazolin-5-one] | 90 nM | 187 °C
COc1ccc(C=CCn2c(=O)c3cc(Br)ccc3n3c(N4CCCC4)nnc23)cc1 [Compound 60, 7-Bromo-4-[3-(4-methoxy-phenyl)-allyl]-1-pyrrolidin-1-yl-4H-[1,2,4]triazolo[4,3-a]quinazolin-5-one] | 50 nM | 171 °C
O=c1c2cc(Br)ccc2n2c(N3CCCC3)nnc2n1CC=Cc1cccnc1 [Compound 61, 7-Bromo-4-(3-pyridin-3-yl-allyl)-1-pyrrolidin-1-yl-4H-[1,2,4]triazolo[4,3-a]quinazolin-5-one] | 11 nM | 102 °C
O=c1c2cc(Br)ccc2n2c(N3CCCC3)nnc2n1C/C=C/c1ccncc1 [Compound 62, 7-Bromo-4-((E)-3-pyridin-4-yl-allyl)-1-pyrrolidin-1-yl-4H-[1,2,4]triazolo[4,3-a]quinazolin-5-one] | 53 nM | 167 °C
COc1ccc(Cn2c(=O)c3cc(Br)ccc3n3c(N4CCCCC4)nnc23)cc1OC [Compound 75, 7-Bromo-4-(3,4-dimethoxy-benzyl)-1-piperidin-1-yl-4H-[1,2,4]triazolo[4,3-a]quinazolin-5-one] | 78 nM | 178 °C
Cc1ccc(Cn2c(=O)c3cc(Br)ccc3n3c(N(C)C)nnc23)cc1 [Compound 78, 7-Bromo-1-dimethylamino-4-(4-methyl-benzyl)-4H-[1,2,4]triazolo[4,3-a]quinazolin-5-one] | 38 nM | 223 °C
CN(C)c1nnc2n(Cc3ccc(O)cc3)c(=O)c3cc(Br)ccc3n12 [Compound 80, 7-Bromo-1-dimethylamino-4-(4-hydroxy-benzyl)-4H-[1,2,4]triazolo[4,3-a]quinazolin-5-one] | 73 nM | 284 °C
COC(=O)c1ccc(Cn2c(=O)c3cc(Br)ccc3n3c(N(C)C)nnc23)cc1 [Compound 81, 4-(7-Bromo-1-dimethylamino-5-oxo-5H-[1,2,4]triazolo[4,3-a]quinazolin-4-ylmethyl)-benzoic acid methyl ester] | 16 nM | 197 °C
CN(C)c1nnc2n(Cc3ccc(CC#N)cc3)c(=O)c3cc(Br)ccc3n12 [Compound 83, [4-(7-Bromo-1-dimethylamino-5-oxo-5H-[1,2,4]triazolo[4,3-a]quinazolin-4-ylmethyl)-phenyl]-acetonitrile] | 12 nM | 230 °C
CN(C)c1nnc2n(CC#Cc3ccccc3)c(=O)c3cc(Br)ccc3n12 [Compound 89, 7-Bromo-1-dimethylamino-4-(3-phenyl-prop-2-ynyl)-4H-[1,2,4]triazolo[4,3-a]quinazolin-5-one] | 27 nM | 159 °C
Cc1ccc2c(c1)c(=O)n(CC=Cc1ccccc1)c1nnc(N3CCCCCC3)n21 [Compound 92, 1-Azepan-1-yl-7-methyl-4-(3-phenyl-allyl)-4H-[1,2,4]triazolo[4,3-a]quinazolin-5-one] | 30 nM | 195 °C
Cc1ccc2c(c1)c(=O)n(Cc1ccc(CC(=O)O)cc1)c1nnc(N3CCCC3)n21 [Compound 96, [4-(7-Methyl-5-oxo-1-pyrrolidin-1-yl-5H-[1,2,4]triazolo[4,3-a]quinazolin-4-ylmethyl)-phenyl]-acetic acid] | 58 nM | 262 °C
COC(=O)C(c1ccccc1)n1nc(N(C)C)n2c3ccc(Br)cc3c(=O)nc12 (stereo not drawn) [Compound 156, (7-Bromo-1-dimethylamino-5-oxo-5H-[1,2,4]triazolo[4,3-a]quinazolin-3-yl)-phenyl-acetic acid methyl ester] | 90 nM | 83 °C
O=c1c2cc(I)ccc2n2c(N3CCCC3)nnc2n1Cc1ccccc1 [Compound 189, 4-Benzyl-7-iodo-1-pyrrolidin-1-yl-4H-[1,2,4]triazolo[4,3-a]quinazolin-5-one] | 78 nM | 184 °C
Cc1ccc2c(c1)c(=O)n(Cc1ccccc1)c1nnc(N3CCCCCC3)n21 [Compound 190, 1-Azepan-1-yl-4-benzyl-7-methyl-4H-[1,2,4]triazolo[4,3-a]quinazolin-5-one] | 190 nM | 183 °C
Nc1ccc2c(c1)c(=O)n(Cc1ccccc1)c1nnc(N3CCCCCC3)n21 [Compound 224, 7-Amino-1-azepan-1-yl-4-benzyl-4H-[1,2,4]triazolo[4,3-a]quinazolin-5-one] | 75 nM | 240 °C (dec.)
Nc1ccc2c(c1)c(=O)n(C/C=C/c1cccnc1)c1nnc(N3CCCC3)n21 [Compound 227, 7-Amino-4-((E)-3-pyridin-3-yl-allyl)-1-pyrrolidin-1-yl-4H-[1,2,4]triazolo[4,3-a]quinazolin-5-one] | 28 nM | 201 °C
CN(C)c1nnc2n(C/C=C/c3ccccc3)c(=O)c3cc(N)ccc3n12 [Compound 229, 7-Amino-1-dimethylamino-4-((E)-3-phenyl-allyl)-4H-[1,2,4]triazolo[4,3-a]quinazolin-5-one] | 80 nM | 198 °C
CNc1ccc2c(c1)c(=O)n(Cc1ccccc1)c1nnc(N3CCCC3)n21 [Compound 230, 4-Benzyl-7-methylamino-1-pyrrolidin-1-yl-4H-[1,2,4]triazolo[4,3-a]quinazolin-5-one] | 2 nM | 171 °C
CNc1ccc2c(c1)c(=O)n(Cc1ccc(C#N)cc1)c1nnc(N3CCCC3)n21 [Compound 231, 4-(7-Methylamino-5-oxo-1-pyrrolidin-1-yl-5H-[1,2,4]triazolo[4,3-a]quinazolin-4-ylmethyl)-benzonitrile] | 0.27 nM | 270 °C
CCNc1ccc2c(c1)c(=O)n(Cc1ccccc1)c1nnc(N3CCCC3)n21 [Compound 233, 4-Benzyl-7-ethylamino-1-pyrrolidin-1-yl-4H-[1,2,4]triazolo[4,3-a]quinazolin-5-one] | 180 nM | 225 °C

— US6828315B1, “1-Amino triazoloc4,3-a! quinazoline-5-ones and/or -5-thiones inhibiting phosphodiesterase IV” (Warner-Lambert LLC, priority 1999, dated 2004)
